Laboratory results reported in patent US20240132479A1, “THERAPEUTIC COMPOUNDS AND USES THEREOF” (Board of Trustees of Michigan State University, priority 2021, published 2024).
In brackets after ≈: the same amount, converted by molar mass.

Experiments:
[1] = system: isoniazid resistant (INH: katGdel) strain (MS015); assay: microbe, parasite or virus in culture; type: cell-based; settings: Mycobacterium tuberculosis, H37RV, read-out: MIC H37Rv (katG^del)
[2] = system: moxifloxacin resistant (MOX: gyrD94K) strain (MOX3); type: cell-based, Mycobacterium tuberculosis
[3] = system: rifampin resistant (RIF:rpoBS450L) strain (ATCC #35838); type: cell-based, Mycobacterium tuberculosis

| SMILES | MIC [1] | MIC H37Rv (gyrA^D94K) [2] | MIC H37Rv (rpoB^S450L) [3] |
| --- | --- | --- | --- |
| Cc1cc2nc(SCC(=O)N(C(C)C)C(C)C)[nH]c2cc1C [Example 2, 2-[(5,6-dimethyl-1H-1,3-benzodiazol-2-yl)sulfanyl]-N,N-bis(propan-2-yl)acetamide] | 0.5 µg/mL (≈ 1.57 µM) | 0.5 µg/mL (≈ 1.57 µM) | 0.25 µg/mL (≈ 0.783 µM) |
| CC(C)N(C(=O)CCc1nc2cc(Cl)c(Cl)cc2[nH]1)C(C)C [Example 19] | ≤ 0.125 µg/mL | ≤0.125 µg/mL | ≤0.125 µg/mL |
| Cc1cc2nc(CCC(=O)N(C(C)C)C(C)C)[nH]c2cc1C [Example 21A] | ≤ 0.125 µg/mL | ≤0.125 µg/mL | 0.25 µg/mL (≈ 0.829 µM) |
